The text below walks through data of US20080319002A1, “Xanthine Derivatives a Useful as Muscarinic Receptor Antagonists” (RANBAXY LABORATORIES LIMITED, priority 2004, published 2008).

`O=C(NC[C@@H]1[C@H]2CN(CCc3ccc4c(c3)CCO4)C[C@@H]12)C1c2ccccc2Oc2ccccc21` [Compound No. 11, N-[(1α,5α,6α)-3-(2-(2,3-dihydro-benzofuran-5-yl)-ethyl)-3-aza-bicyclo[3.1.0]hex-6-ylmethyl]-9H-Xanthene-9-carboxylic acid amide] registered a melting point of 165 °C.
As for `O=C(N[C@H]1[C@@H]2CNC[C@@H]21)C1c2ccccc2Oc2ccccc21` [Compound No. 6], the figure is 183 to 190 °C.

As usually defined, the melting point is the temperature, or range, at which the solid turns liquid.
